In PubChem BioAssay (NCI):
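Briefly, cells in 96-well plates were exposed to five compound concentrations for 48 h, and endpoints were estimated by linear interpolation. TGI: total growth inhibition.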

How the values were obtained:
Assay in all cases: growth of human tumour cells (NCI), 48 h
[1] = tested on: 786-0 renal
[2] = tested on: A498 renal
[3] = tested on: A549 NSCLC
[4] = tested on: ACHN renal
[5] = tested on: BT-549 breast
[6] = tested on: CAKI-1 renal
[7] = tested on: COLO 205 colon
[8] = tested on: DU-145 prostate
[9] = tested on: EKVX NSCLC
[10] = tested on: HCC-2998 colon
[11] = tested on: HCT-116 colon
[12] = tested on: HCT-15 colon
[13] = tested on: HL-60(TB) leukemia
[14] = tested on: HOP-62 NSCLC
[15] = tested on: HOP-92 NSCLC
[16] = tested on: HS 578T breast
[17] = tested on: HT29 colon
[18] = tested on: IGROV1 ovarian
[19] = tested on: K-562 leukemia
[20] = tested on: KM12 colon
[21] = tested on: LOX IMVI melanoma
[22] = tested on: M14 melanoma
[23] = tested on: MALME-3M melanoma
[24] = tested on: MCF7 breast
[25] = tested on: MDA-MB-231 breast
[26] = tested on: MDA-MB-435
[27] = tested on: MDA-N
[28] = tested on: MOLT-4 leukemia
[29] = tested on: NCI-H226 lung
[30] = tested on: NCI-H23 lung
[31] = tested on: NCI-H460 lung
[32] = tested on: NCI-H522 lung
[33] = tested on: NCI/ADR-RES ovarian
[34] = tested on: OVCAR-3 ovarian
[35] = tested on: OVCAR-4 ovarian
[36] = tested on: OVCAR-5 ovarian
[37] = tested on: OVCAR-8 ovarian
[38] = tested on: PC-3 prostate
[39] = tested on: RPMI-8226 leukemia
[40] = tested on: RXF 393 renal
[41] = tested on: SF-268 CNS
[42] = tested on: SF-295 CNS
[43] = tested on: SF-539 CNS
[44] = tested on: SK-MEL-2 melanoma
[45] = tested on: SK-MEL-28 melanoma
[46] = tested on: SK-MEL-5 melanoma
[47] = tested on: SK-OV-3 ovarian
[48] = tested on: SN12C renal
[49] = tested on: SNB-19 CNS
[50] = tested on: SNB-75 CNS
[51] = tested on: SR leukemia
[52] = tested on: SW-620 colon
[53] = tested on: T-47D breast
[54] = tested on: TK-10 renal
[55] = tested on: U251 CNS
[56] = tested on: UACC-257 melanoma
[57] = tested on: UACC-62 melanoma
[58] = tested on: UO-31 renal
[59] = tested on: CCRF-CEM leukemia

For `O=C(O)C(CCc1ccccn1)c1ccccc1` (stereo unspecified), the TGI [1] was > 100 µM, the TGI [2] was > 100 µM and the TGI [3] was > 100 µM. The TGI [4] was > 100 µM, the TGI [5] was > 100 µM and the TGI [6] was > 100 µM. The TGI [7] was > 100 µM, the TGI [8] was > 100 µM and the TGI [9] was > 100 µM. For the same compound, the TGI [10] was > 100 µM, the TGI [11] was > 100 µM and the TGI [12] was > 100 µM. The TGI [13] was > 100 µM, the TGI [14] was > 100 µM and the TGI [15] was > 100 µM. For the same compound, the TGI [16] was > 100 µM, the TGI [17] was > 100 µM and the TGI [18] was > 100 µM. The TGI [19] was > 100 µM, the TGI [20] was > 100 µM and the TGI [21] was > 100 µM. For the same compound, the TGI [22] was > 100 µM, the TGI [23] was > 100 µM and the TGI [24] was > 100 µM. The TGI [25] was > 100 µM, the TGI [26] was > 100 µM and the TGI [27] was > 100 µM. For the same compound, the TGI [28] was > 100 µM, the TGI [29] was > 100 µM and the TGI [30] was > 100 µM. For the same compound, the TGI [31] was > 100 µM, the TGI [32] was > 100 µM and the TGI [33] was > 100 µM. The TGI [34] was > 100 µM, the TGI [35] was > 100 µM and the TGI [36] was > 100 µM. The TGI [37] was > 100 µM, the TGI [38] was > 100 µM and the TGI [39] was > 100 µM. The TGI [40] was > 100 µM, the TGI [41] was > 100 µM and the TGI [42] was > 100 µM. For the same compound, the TGI [43] was > 100 µM, the TGI [44] was > 100 µM and the TGI [45] was > 100 µM. For the same compound, the TGI [46] was > 100 µM, the TGI [47] was > 100 µM and the TGI [48] was > 100 µM. For the same compound, the TGI [49] was > 100 µM, the TGI [50] was > 100 µM and the TGI [51] was > 100 µM. For the same compound, the TGI [52] was > 100 µM, the TGI [53] was > 100 µM and the TGI [54] was > 100 µM. The TGI [55] was > 100 µM, the TGI [56] was > 100 µM and the TGI [57] was > 100 µM. For the same compound, the TGI [58] was > 100 µM.

`O=P(Oc1ccc(Cl)cc1)(Oc1ccc(Cl)cc1)N1CC1` was tested, and the TGI [1] was > 10 µM, the TGI [2] was > 10 µM and the TGI [3] was > 10 µM. The TGI [4] was > 10 µM, the TGI [5] was > 10 µM and the TGI [59] was 0.429 µM. For the same compound, the TGI [7] was > 10 µM, the TGI [8] was > 10 µM and the TGI [9] was > 10 µM. The TGI [10] was > 10 µM, the TGI [12] was > 10 µM and the TGI [13] was > 10 µM. For the same compound, the TGI [14] was > 10 µM, the TGI [16] was > 10 µM and the TGI [17] was > 10 µM. For the same compound, the TGI [19] was > 10 µM, the TGI [20] was > 10 µM and the TGI [21] was > 10 µM. For the same compound, the TGI [22] was > 10 µM, the TGI [23] was > 10 µM and the TGI [24] was > 10 µM. The TGI [25] was > 10 µM, the TGI [26] was > 10 µM and the TGI [27] was > 10 µM. For the same compound, the TGI [28] was > 10 µM, the TGI [29] was > 10 µM and the TGI [30] was > 10 µM. The TGI [31] was > 10 µM, the TGI [33] was > 10 µM and the TGI [34] was > 10 µM. The TGI [35] was > 10 µM, the TGI [36] was > 10 µM and the TGI [37] was > 10 µM. For the same compound, the TGI [38] was > 10 µM, the TGI [39] was > 10 µM and the TGI [41] was > 10 µM. For the same compound, the TGI [42] was > 10 µM, the TGI [43] was > 10 µM and the TGI [44] was > 10 µM. For the same compound, the TGI [45] was > 10 µM, the TGI [46] was > 10 µM and the TGI [47] was > 10 µM. For the same compound, the TGI [48] was > 10 µM, the TGI [49] was > 10 µM and the TGI [50] was > 10 µM. For the same compound, the TGI [51] was > 10 µM, the TGI [52] was > 10 µM and the TGI [53] was > 10 µM. For the same compound, the TGI [54] was > 10 µM, the TGI [55] was > 10 µM and the TGI [56] was > 10 µM. The TGI [57] was > 10 µM and the TGI [58] was > 10 µM.
